Test results: ChEMBL document CHEMBL3124763
Active and inactive are the calls of the source. The rule behind the calls is not given here. Where a SMILES comes first, the peptide text is derived from it. The star is where a group is joined. Decanoyl = CCCCCCCCCC(=O)*; CH2Cl = ClC*

Molecular target: Furin (Homo sapiens) (UniProt P09958)
Assay: Inhibition of furin in human HEK293FT cells assessed as HA5 maturation at 25 uM after 48 hrs by Western blotting analysis
Type: cell-based

Furin (Homo sapiens), sequence (P09958 whole entry): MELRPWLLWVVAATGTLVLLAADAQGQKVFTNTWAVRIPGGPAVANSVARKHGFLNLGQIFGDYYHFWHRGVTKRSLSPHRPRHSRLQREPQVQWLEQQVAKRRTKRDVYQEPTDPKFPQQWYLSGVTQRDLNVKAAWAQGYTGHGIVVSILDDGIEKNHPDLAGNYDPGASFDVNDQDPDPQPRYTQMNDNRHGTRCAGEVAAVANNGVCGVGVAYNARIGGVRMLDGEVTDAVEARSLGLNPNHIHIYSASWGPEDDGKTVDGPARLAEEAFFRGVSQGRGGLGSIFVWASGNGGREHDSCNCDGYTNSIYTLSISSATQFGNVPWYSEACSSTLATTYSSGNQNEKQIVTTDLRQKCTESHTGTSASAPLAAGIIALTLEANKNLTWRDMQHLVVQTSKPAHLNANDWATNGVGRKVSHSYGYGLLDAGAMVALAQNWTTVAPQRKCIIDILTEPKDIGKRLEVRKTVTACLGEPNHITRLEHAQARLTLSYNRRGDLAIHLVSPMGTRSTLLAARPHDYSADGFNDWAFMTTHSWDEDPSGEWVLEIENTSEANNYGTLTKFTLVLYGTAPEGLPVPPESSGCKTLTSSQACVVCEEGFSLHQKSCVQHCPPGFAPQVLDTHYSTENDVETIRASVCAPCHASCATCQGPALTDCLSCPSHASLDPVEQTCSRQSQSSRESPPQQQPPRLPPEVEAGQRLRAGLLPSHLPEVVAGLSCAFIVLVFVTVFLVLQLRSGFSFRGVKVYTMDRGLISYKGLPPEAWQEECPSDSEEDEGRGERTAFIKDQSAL

Q: How did the inhibition turn out when `CCCCCCCCCC(=O)N[C@@H](CCCNC(=N)N)C(=O)N[C@H](C(=O)N[C@@H](CCCCN)C(=O)N[C@@H](CCCNC(=N)N)C(=O)CCl)C(C)C` (Decanoyl-RVKR-CH2Cl) was run?
A: Its inhibition is “Active”.
